Publication PMC9256669, “Monomethyl auristatin antibody and peptide drug conjugates for trimodal cancer chemo-radio-immunotherapy” (Nature Communications, 2022)
Values joined by “and” are separate entries in the source; they are usually repeats but may differ in a detail not shown here. Equal entries are not always repeated. Non-standard residues stand in square brackets, D forms with d. Residues, ends and D or L forms follow the SMILES beside them. *: point of attachment. Dolaproine = CO[C@@H]([C@@H]1CCCN1)[C@@H](C)C(=O)O; Dil = CC[C@H](C)[C@H](NC)[C@@H](CC(=O)O)OC; X1 = C[C@@H](N*)[C@@H](O)c1ccccc1; NMeV = CN[C@H](C(=O)O)C(C)C

How the values were obtained:
B16 cells [1] = test: Clonogenic survival with MMAE and 2 Gy (SF2); assay type: cell-based, murine; parameters: key to SF2: fraction surviving 2 Gy relative to non-irradiated cells; conditions: for SF2: Figure 3d, six single replicates
Protocol: Cells were treated with MMAE for 24 h and then irradiated with 2 Gy. […] Following IR, cells were counted, re-plated at varying cell numbers in drug free media. 10–14 days after initial seeding formed colonies were methanol fixed, stained with crystal violet, and counted. Surviving fraction at 2 Gy (SF2) was calculated as the fraction of cells surviving 2 Gy compared to non-irradiated cells.

B16 cells [2] = test: Cell cycle analysis; assay type: cell-based, murine; conditions: for G2/M fraction: Figure 3c, single replicates
Protocol: Cells were MMAE treated for 24 h, fixed in 70% ethanol, stained with FxCyclePI/RNase solution (Life Technologies), and then analyzed by FACS using FlowJo software.

MOC2 = test: Cytotoxicity, Alamar Blue assay; assay type: cell-based, murine; conditions: MOC2, 72 h drug exposure, one value per biological replicate, read-out: IC50 values
Protocol: Murine colorectal (MC38 (ENH204-FP)) cancer cell lines were obtained from Kerafast. Murine head and neck MOC1 and MOC2 were generously provided by Dr. R. Uppaluri. CAL27 PIK3CA H1047R expressing cells and 4MOSC1 cells were generated in Dr. Gutkind’s laboratory and previously characterized[42],[55]. […] MC38 cells were cultured in DMEM supplemented with 10% FBS, 1 mM sodium pyruvate (Gibco), 1% non-essential amino acids (Gibco), and 10 mM HEPES (Gibco). MOC1 and MOC2 cells were cultured in IMDM (Lonza)/F-12K nutrient mixture at a 2:1 mixture with 5% FBS, 5 ng/ml EGF (EMD Millipore), 400 ng/ml hydrocortisone (Sigma), and […] insulin (Sigma). On receipt, each cell line was expanded, cryopreserved as low passage stocks, and routinely tested for mycoplasma. Cisplatin (Enzo Biosciences), paclitaxel (Sigma), and MMAE (Concortis) were reconstituted in DMSO. […] Clinical grade cetuximab (Erbitux, Lilly Medical) was obtained from UCSD Moores Cancer Center Pharmacy.
Cells were plated in 96-well plates and exposed to a drug concentration range for 72 h. Alamar Blue was added to the cells and allowed to incubate for 2–4 h at 37 °C. Plates were analyzed using a plate reader with fluorescence measured at 560 nm. Fractional survival was normalized to untreated control cell fluorescent values. Drug IC50 was calculated using Prism software (GraphPad, La Jolla, CA). Cell viability, cytotoxicity and apoptosis were also measured by ApoTox-Glo Triplex Assay (Promega).
measured by Alamar Blue assay. For Alamar Blue assay cytotoxicity, we measured cell viability at 72 hr of […]

[3] = Pilot dose studies of CDX3379-MMAE ADC (response to reviewers); assay type: in vivo
Protocol: compares to MMAE in immune-competent cancer models. We have now tested the hypothesis raised by the Reviewer head on and present new data (Fig. 3h). First, we successfully synthesized a CDX3379-MMAF ADC (Supplementary Figs. 2c & 2d). Then, we tested CDX3379-MMAE + IR to […] directly in B16 […]
these findings, we hypothesize that MMAE mediated bystander effects improve radiosensitized tumor control when compared to MMAF tumor cell radiosensitization and continue with MMAE as our lead radiosensitizing […]
Comment 2: “authors claim that in syngeneic model MMAE lacked therapeutic efficacy irrespective of the coupled tumor-directed delivery vehicle. However, comparison here is misleading, as they compare MMAE activity coupled to an antibody vs a penetrating peptide. Instead, in order to fully address the concept that auristatin MMAE has limited antitumor activity in a syngeneic model a more appropriate control should be used, that is a MMAE coupled to a different mAb targeting other antigen (receptor). In addition, this would reinforce the evidence about the potential of ADC therapy in combination with IR in immunocompetent mouse […]
Response: In principle, we agree with the sentiment raised by the Reviewer to have another ADC targeting a different cell surface receptor. […]

Row | Compound | SF2 (B16 cells [1]; MMAE 1 nM with 2 Gy) | SF2 (B16 cells [1]; MMAE 2 nM with 2 Gy) | SF2 (B16 cells [1]; MMAE 3 nM with 2 Gy) | radiosensitization, clonogenic cell death (B16 cells [1]; murine tumor cells, single nanomolar doses of MMAE, 2 Gy) | G2/M fraction (B16 cells [2]; MMAE 1 nM) | G2/M fraction (B16 cells [2]; MMAE 2 nM) | G2/M fraction (B16 cells [2]; MMAE 5 nM) | G2/M fraction (B16 cells [2]; MMAE 10 nM) | cell cycle effect (B16 cells [2]; MMAE-treated cells) | IC50 (MOC2) | anti-tumor activity in pilot studies ([3]; 1 nmole CDX3379-MMAE) | anti-tumor activity in pilot studies ([3]; 5 nmoles CDX3379-MMAE)
1 | CC[C@H](C)[C@@H]([C@@H](CC(=O)N1CCC[C@H]1[C@H](OC)[C@@H](C)C(=O)N[C@H](C)[C@@H](O)c1ccccc1)OC)N(C)C(=O)[C@@H](NC(=O)[C@@H](NC)C(C)C)C(C)C [MMAE, monomethyl auristatin E] (H-[NMeV]V[Dil][Dolaproine]-X1) | 0.93 and 0.7 and 0.72 and 0.83 and 0.98 | 0.57 and 0.61 and 0.48 and 0.63 and 0.74 | 0.68 and 0.71 and 0.65 and 0.5 and 0.56 | sensitized murine tumor cells to IR-mediated clonogenic cell death | 0.13 and 0.12 | 0.12 and 0.14 | 0.23 and 0.25 | 0.73 and 0.76 | arresting cells in the radiosensitive mitotic phase of the cell cycle | 9.29 nM and 11.1 nM | – | –
2 | CDX3379-MMAE: anti-HER3 antibody CDX3379 with 4 MMAE per antibody via MC-VC-PABC linker, labeled with Cy5 | – | – | – | – | – | – | – | – | – | – | ineffective | anti-tumor activity
